From patent publication US8268792B2, “Use of an active ingredient combination that contains hydroxystilbene for preventing and/or treating diseases” (Carl-Friedrich Spaich, priority 2005, dated 2012)
“Also recorded” adds a separate entry of the source.

Tests used:
[1] = Dissolving tests with ERr 731® in ethanol and glycerol; type: physicochemical
[2] = In vivo accumulation of ERr 731® ingredients in dog plasma (100, 300, 1000 mg/kg/day); design: species or system dog (pure-bred beagles); conditions: male and female dogs, ERr 731® 100, 300, 1000 mg/kg body weight/day, day 1
Experimental: (§1) These plasma samples were processed as follows: 500 μl of plasma were mixed with 25 μl of an internal standard working solution (2.5 ng/μl rhaponticin or rhapontigenin in methanol) and then mixed with 500 μl of isotonic NaCl solution and 2.5 ml of diethyl ether/butanol (9/1; v/v). After shaking and centrifugation (10 minutes at 4600 rpm), about 2 ml of the supernatant were removed and dried under a stream of nitrogen (at 60° C.). The pellet was taken up in 50 μl of methanol. Addition of 200 μl of distilled water was followed by renewed mixing, and 200 μl were pipetted into autosampler tubes (light-protected). 30 μl of the samples were injected for analysis into an LC-MS/MS system (PE Sciex API 3000). Chromatographic separation of the analytes took place on a Phenomenex Polymer X column with a gradient of an ammonium buffer solution and an acetonitrile/methanol mixture as mobile phase.
On day 1, 5 ml of blood were taken from the animals after 0, 0.5, 1, 2, 4, 8 and 24 hours in each case, and plasma was obtained. The analysis as described in section a) was carried out thereon in order to detect rhaponticin, deoxyrhaponticin, rhapontigenin, deoxyrhapontigenin, resveratrol and piceatannol in blood. The results of the test are depicted in FIG. 2a.

[3] = target: T1, estrogen receptor β (ERβ) (Homo sapiens, UniProt Q92731); test: ERβ/mC3-luciferase transactivation in transfected HEC-1B cells; type: cell-based; conditions: HEC-1B cells cotransfected with hERβ and mC3-Luc, 24 hours incubation
T1 construct: expressed in transfected cells; host or cells: HEC-1B human endometrial adenocarcinoma cells (no endogenous ERα or ERβ)
T1 sequence (Q92731 whole entry): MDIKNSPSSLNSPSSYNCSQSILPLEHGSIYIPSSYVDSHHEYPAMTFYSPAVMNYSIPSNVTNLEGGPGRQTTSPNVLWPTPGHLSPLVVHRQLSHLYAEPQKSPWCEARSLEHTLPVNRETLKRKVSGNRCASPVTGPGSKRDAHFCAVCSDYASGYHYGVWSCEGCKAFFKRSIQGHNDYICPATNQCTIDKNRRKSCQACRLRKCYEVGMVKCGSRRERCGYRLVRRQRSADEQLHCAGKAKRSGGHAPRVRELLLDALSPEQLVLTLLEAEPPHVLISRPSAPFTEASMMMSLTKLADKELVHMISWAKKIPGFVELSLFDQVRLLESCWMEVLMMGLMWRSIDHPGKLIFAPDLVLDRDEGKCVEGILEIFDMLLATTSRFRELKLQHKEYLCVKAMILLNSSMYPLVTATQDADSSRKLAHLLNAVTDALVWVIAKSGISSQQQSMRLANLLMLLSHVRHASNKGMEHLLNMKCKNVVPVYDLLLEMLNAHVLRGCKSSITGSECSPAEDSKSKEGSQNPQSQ
Source text: They therefore represent a possible way of investigating, in a human and endometrial context, ligand-dependent effects of substances on the transactivation mechanisms in relation to different receptor subtypes and different estrogen-responsive promoters.
An established ERβ/mC3-luciferase system was employed. For this purpose, HEC-1B cells were applied in 24-well plates with a density of 95 000 cells/well (in Dulbecco's modified Essential Medium (DMEM/F12)). The next day, they were cotransfected with an ERβ-containing construct (hERβ/pSG2) and a triple-ERE-containing promoter/luciferase construct (mC3-Luc/pGL2) (Hillisch et al. Dissecting physiological roles of estrogen receptor alpha and beta with potent selective ligands from structure-based design. Mol. Endocrinol. 2004 July; 18:1599-609). The transient transfection took place using DOTAP (N-[1-(2,3-dioleoyloxy)]-N,N,N-trimethylammoniumpropane methylsulfate, Roth) as described by the manufacturer.
After 24 hours, the cells were treated with appropriate concentrations of the substances or substance mixtures to be investigated. […] The incubation time was 24 hours. The cells were then lysed. The Luciferase Assay® kit (Promega) was used to determine the luciferase activity on the one hand, and the BCA® kit (Sigma) was used to determine the protein content on the other hand. […]

[4] = test system: transcription factor NF-κB; conditions: cited from earlier work
[5] = test system: hormone-sensitive and -insensitive prostate cancer cells; conditions: pure resveratrol; cited from earlier work
[6] = test system: AR-dependent gene expression; conditions: depending on the concentration; cited from earlier work
HL60 leukemia cells = conditions: cited from earlier work
[7] = Pharmacokinetics of ERr 731® ingredients in subject after oral intake (plasma, LC-MS/MS); type: in vivo, human; conditions: volunteer
Experimental: Subsequently, 10 ml of blood was taken at various times (as indicated in FIG. 1) and the plasma was obtained by centrifugation.
as §1

[8] = test system: bacteria of the human intestinal tract; conditions: cited from earlier work
[9] = Test A: 200 mg of dry extract in 50 ml of glycerol R
[10] = Test B: 200 mg of dry extract in 50 ml of ethanol 30% R
[11] = Test C: 200 mg of dry extract in 50 ml of ethanol 50% R
[12] = Test D: 200 mg of dry extract in 50 ml of ethanol 86% R

| SMILES | content found dissolved [1, 9] | dissolved, of theory [1, 9] | content found dissolved [1, 10] | dissolved, of theory [1, 10] | content found dissolved [1, 11] | dissolved, of theory [1, 11] | content found dissolved [1, 12] | dissolved, of theory [1, 12] | accumulation (AUC 0-24 h) in dog plasma [2] | effect on transcription factor NF-κB [4] | other results |
| --- | --- | --- | --- | --- | --- | --- | --- | --- | --- | --- | --- |
| COc1ccc(C=Cc2cc(O)cc(O[C@@H]3O[C@H](CO)[C@@H](O)[C@H](O)[C@H]3O)c2)cc1 [deoxyrhaponticin] | 27.1% deoxyrhaponticin | (90.6% of theory) | 25.2% deoxyrhaponticin | (84.2% of theory) | 29.0% deoxyrhaponticin | (97.0% of theory) | 29.5% deoxyrhaponticin | (98.7% of theory) | dose-dependent accumulation |  |  |
| Oc1cc(O)cc(/C=C/c2ccc(O)c(O)c2)c1 [piceatannol] |  |  |  |  |  |  |  |  |  | inhibitory effect |  |
| Oc1ccc(C=Cc2cc(O)cc(O)c2)cc1 [resveratrol] |  |  |  |  |  |  |  |  |  |  | apoptotic effect on prostate cancer cells [5]: apoptotic effect; AR-dependent gene expression [6]: an increase or inhibition of AR-dependent gene expression was observed; apoptotic effect on HL60 leukemia cells (HL60 leukemia cells): apoptotic effect |

Further lines, with some results ahead:

| content found dissolved [1, 9] | dissolved, of theory [1, 9] | content found dissolved [1, 10] | dissolved, of theory [1, 10] | content found dissolved [1, 11] | dissolved, of theory [1, 11] | content found dissolved [1, 12] | dissolved, of theory [1, 12] | accumulation (AUC 0-24 h) in dog plasma [2] | SMILES | effect on transcription factor NF-κB [4] | other results |
| --- | --- | --- | --- | --- | --- | --- | --- | --- | --- | --- | --- |
|  |  |  |  |  |  |  |  | undetectable | COc1ccc(C=Cc2cccc(O)c2)cc1O [deoxyrhapontigenin, 3′,5-Dihydroxy-4′-methoxystilbene] |  | activation of ERβ (relative luciferase activity vs DMSO control) [3]: activate the ERβ dose-dependently; also recorded: effective only at higher concentrations |
| 55.1% rhaponticin | (89.0% of theory) | 52.2% rhaponticin | (84.3% of theory) | 58.8% rhaponticin | (95.0% of theory) | 59.8% rhaponticin | (96.6% of theory) | dose-dependent accumulation | COc1ccc(C=Cc2cc(O)cc(O[C@@H]3O[C@H](CO)[C@@H](O)[C@H](O)[C@H]3O)c2)cc1O [rhaponticin, 3,3′,5-Trihydroxy-4′-methoxystilbene 3-O-β-D-glucopyranoside] | inactive | time of maximum in the blood ([7]; oral 40 mg ERr 731®): 3 to 4 h; detection in the blood (plasma) ([7]; oral 10 tablets = 40 mg ERr 731®): detected in the blood; degradation by intestinal bacteria [8]: degraded by bacteria of the human intestinal tract to rhapontigenin |
